# In patent US20060121449A1, “Method for selection of compounds which inhibit clonal cell growth and use thereof” (priority 2002, published 2006):
# Assays:
# HSV1 [1] = test: HSV1 replication and cytopathogenicity in RK13 cells (Exp 11a, 11b); type: cell-based, Herpes virus type 1; details: for Cytopathogenicity read after 24 hours: 4d = 100% degenerated; for Cell layer read after 24 hours: 4 g = unaffected and covering bottom of the well; for Coverage of the bottom read after 2 days / Cytopathogenicity read after 2 days: 11b, HSV 2 μl/well; for Coverage of the bottom read after 2 days: 1 g = 100% coverage of the bottom; for Cytopathogenicity read after 2 days: 1d is 100% degeneration
# HSV1 [2] = test: as above; type: cell-based, Herpes virus type 1; details: for Coverage of the bottom read after 2 days / Cytopathogenicity read after 2 days: 11b, HSV 2 μl/well; for Coverage of the bottom read after 2 days: 1 g = 100% coverage of the bottom; for Cytopathogenicity read after 2 days: 1d is 100% degeneration
# Method: RK13 cells and HSV1 v:11252 was obtained from Dr. G. Hoddevik, National Institute of Public Health, Oslo, Virus had been stored at −75° C.
# The inoculated virus was not removed before the titration in the last experiment. This time, however, removal of inoculate was performed next day.
# HSV-1 was added undiluted, but 4-OH-OPB was diluted in 50 μl medium. The row seeded with 2000 nl of HSV was titrated and read after 4 days:
# This time the inhibition is 10 times better than before. The difference from 1st time was that the day after infecting cell cultures the medium was changed in order to get rid of remaining active HSV. In addition the original HSV 1 infected and treated cultures were incubated one day more, for 48 hours. The production of virus is then measured in titration of 4-fold dilution steps.
# MT4 cells = test: Clonal growth of MT4 cells in fluid medium, cross dilution of cells and inhibitor (Exp 14); type: cell-based
# Method: Ten fold cell dilutions indicatet in the last row (Table 1) were undertaken in Falcon tissue culture tray using 6×6 wells.
# The 4-OH-OPB dilutions were prepared minutes before being used from 20 mM stock solution in DMSO.
# The 10 μM and 3 μM dilutions were made first and each of them were diluted further in 1/10 steps.
# [3] = tested on: spleen antibody producing cells against sheep red cells; test: Jerne's test: haemolytic plaques of spleen cells after immunisation with sheep red cells (Exp 10); type: in vivo, mouse; details: for Change of number of plaques (antibody producing cells), average and high doses: 8.4 μl 20 mM and 3.5 μl 200 mM s.c.; for Condition of the animals on injection days (day 0 to day 62): all animals, s.c. 2 μl 20 mM to 3.5 μl 200 mM, day = column head; for Plaque no. in 10 mill. cells: control 4689
# Method: The same principle could be tested in animals using the classical Jerne's test. Shortly described: Mice were immunised with sheep red cells. At the same time subcutaneous injection with a clone inhibitor, e.g. 4-OH-OPB, was performed. After 5 days the spleen was squeezed and spleen-cells counted and mixed with agar medium, sheep red cells and complement. After a short time plaques appeared and were counted and percent of total number of spleen cells was calculated. […] Therefore, it is probable that it is only the reaction against the new immunogen that is affected. […] Only cells of the same specificity seemed to be the <> of clonal inhibition even if lots of other B-lymphocytes are present, but with other specificities. The only condition necessary seemed to be that affected cells should be located more than a certain distance from each other.
# In order to examine the degree of diminishing cloning in the immune system, Jerne's test in mice may be suitable (Experiment 10). Sheep erythrocytes are injected into mice. A few days later cells from the spleen of the animals are studied. In experiment 10 the smallest dose was about 3.8 μM if 4-OH-OPB was solved in the extracellular fluid of the mouse. […] But there are indications that normal cells might tolerate higher doses than malignant cells. Therefore, it is thought that effective tumour inhibiting doses of 4-OH-OPB probably will affect the clonability of antibody producing cells in the spleen under or shortly after primary immunisation moderately, about 2 logs.
# The test animals were 4 mice, white Bom/NMRI (Table 5). The drug that was tested in this experiment is 4-OH-OPB (Table 1-4). It is inhibiting Ehrlich ascites when injected together with the cells in peritoneum in a concentration of 4 μM or higher and clonal growth of BHK21/c13 and its polyoma virus transformed offspring, S100T1, in cell culture.
# A section was performed; they were weighed and a search for tumour masses was undertaken without finding any. The spleens were removed and about half of it crushed in 0.5 ml Eagles for getting extracted, free spleen cells that were seeded in soft agar on top of a solid agar layer in a Petri dish of 8.5 cm in diameter. The agar layer with spleen cells also contained sheep red cells and complement was added to obtain hemolysis.
# Animals were killed by cervical dislocation on day 62 and spleens were immediately put on cold Eagle's medium for transportation. It lasted about 5 hours before the agar dishes were ready for incubation in 5% CO2 and 37° C. However, the dishes from mouse #1 and #2 were too fluid in the top layers and developed two many plaques to be counted. Therefore, the next day, the second half of the two spleens from mouse #1 and #2 that were kept cold in the same medium were crushed in the same way and new dishes were prepared with less number of cells.
# [4] = 11a, inoculate 1 μl/well, 30 μM
# [5] = 11a, inoculate 4 μl/well, 30 μM
# [6] = 11a, inoculate 16 μl/well, 30 μM
# [7] = Exp 10 animal 2, low: 2 μl 20 mM s.c.
# [8] = Exp 10 animal 3, average: 8.4 μl 20 mM s.c.
# [9] = Exp 10 animal 4, high: 3.5 μl 200 mM s.c.
structure (smiles),measurement,setting,value
"CCCCC1(O)C(=O)N(c2ccccc2)N(c2ccc(O)cc2)C1=O (stereo not shown) [4-OH-OPB, 4-butyl-4-hydroxy-2(p-hydroxyphenyl)-1-phenyl-3,5-pyrazolidinedione]","HSV titration of treated wells, read after 4 days","HSV1 [1]; 11a, 1 μl HSV, 0.3 μM, dilution 1/1024",((+)?
same,Cytopathogenicity read after 24 hours,"HSV1 [1]; 11a, inoculate 1 μl/well, 0.1 μM",1.7 days
same,Cytopathogenicity read after 24 hours,"HSV1 [1]; 11a, inoculate 1 μl/well, 0.3 μM",1.7 days
same,Cytopathogenicity read after 24 hours,"HSV1 [1]; 11a, inoculate 1 μl/well, 1 μM",1.7 days
same,Cytopathogenicity read after 24 hours,"HSV1 [1]; 11a, inoculate 1 μl/well, 3 μM",1.7 days
same,Cytopathogenicity read after 24 hours,"HSV1 [1]; 11a, inoculate 1 μl/well, 10 μM",4 days
same,Cell layer read after 24 hours,HSV1 [1]; [4],3 to 4 g
same,Cytopathogenicity read after 24 hours,HSV1 [1]; [4],0 days
same,Cytopathogenicity read after 24 hours,"HSV1 [1]; 11a, inoculate 4 μl/well, 0.1 μM",2.6 days
same,Cytopathogenicity read after 24 hours,"HSV1 [1]; 11a, inoculate 4 μl/well, 0.3 μM",2.6 days
same,Cytopathogenicity read after 24 hours,"HSV1 [1]; 11a, inoculate 4 μl/well, 1 μM",2.6 days
same,Cytopathogenicity read after 24 hours,"HSV1 [1]; 11a, inoculate 4 μl/well, 3 μM",2.6 days
same,Cytopathogenicity read after 24 hours,"HSV1 [1]; 11a, inoculate 4 μl/well, 10 μM",4 days
same,Cell layer read after 24 hours,HSV1 [1]; [5],3 to 4 g
same,Cytopathogenicity read after 24 hours,HSV1 [1]; [5],0 days
same,Cytopathogenicity read after 24 hours,"HSV1 [1]; 11a, inoculate 16 μl/well, 0.1 μM",3.4 days
same,Cytopathogenicity read after 24 hours,"HSV1 [1]; 11a, inoculate 16 μl/well, 0.3 μM",3 to 4 days
same,Cytopathogenicity read after 24 hours,"HSV1 [1]; 11a, inoculate 16 μl/well, 1 μM",3.4 days
same,Cytopathogenicity read after 24 hours,"HSV1 [1]; 11a, inoculate 16 μl/well, 3 μM",4 days
same,Cytopathogenicity read after 24 hours,"HSV1 [1]; 11a, inoculate 16 μl/well, 10 μM",4 days
same,Cell layer read after 24 hours,HSV1 [1]; [6],3 to 4 g
same,Cytopathogenicity read after 24 hours,HSV1 [1]; [6],0.5 days
same,Coverage of the bottom read after 2 days,HSV1 [1]; 0.3 μM,1 g
same,Coverage of the bottom read after 2 days,HSV1 [1]; 1 μM,1 g
same,Cytopathogenicity read after 2 days,HSV1 [1]; 1 μM,0.28 days
same,Coverage of the bottom read after 2 days,HSV1 [1]; 3 μM,1 g
same,Cytopathogenicity read after 2 days,HSV1 [1]; 3 μM,0.28 days
same,Cytopathogenicity read after 2 days,HSV1 [1]; 10 μM,1 days
same,Coverage of the bottom read after 2 days,HSV1 [1]; 30 μM,1 g
same,Concentration that inhibited HSV / necessary for the cure of the infection in cell culture,"HSV1 [1]; Exp 11a, inoculate not removed before titration",10 µM
same,Concentration that inhibited satisfactorily,HSV1 [1]; Exp 11b,1000 nM
same,Total titre reduction,HSV1 [1]; Exp 11b,about 3.5 log
same,Dose giving maximal inhibition of HSV1 titre,"HSV1 [1]; Exp 11b, titration read after four days",≥ 1 µM
same,Inhibition in Exp 11b compared with Exp 11a,HSV1 [1]; medium changed the day after infection,10 times
same,Coverage of the bottom read after 2 days,HSV1 [2]; 0.1 μM,1 g
same,Cytopathogenicity read after 2 days,HSV1 [2]; 0.1 μM,0.28 days
same,Cytopathogenicity read after 2 days,HSV1 [2]; 0.3 μM,0.28 days
same,Coverage of the bottom read after 2 days,HSV1 [2]; 10 μM,0.4 g
same,Cytopathogenicity read after 2 days,HSV1 [2]; 30 μM,0 days
same,Concentration found to inhibit satisfactorily,"HSV1 [2]; Exp 11b, new medium after 24 hours, titrated after 48 hours",1 µM
same,Concentration needed for arresting colony growth: less in cultures with 5000 cells than with 500000 cells,MT4 cells,about 2 logs
same,"Change of number of plaques, smallest dose","[3]; Exp 10, 2 μl 20 mM s.c.",did not significantly change the number of plaques
same,"Change of number of plaques (antibody producing cells), average and high doses",[3]; Exp 10,did reduce the number significantly
same,"Change of number of plaques (antibody producing cells), average and high doses","[3]; Exp 10, listed as 4-OH—OPB",OPB significantly reduced the number of anti-
same,Condition of the animals on injection days (day 0 to day 62),[3]; Exp 10,all animals were clinically well
same,Condition of the animals on injection days (day 0 to day 62),"[3]; Exp 10, listed as 4-OH—OPB",all well at end
same,1. number of plaques,[3]; [7],many
same,2. number of plaques,"[3]; Exp 10 animal 2, low: 2 μl 20 mM s.c., 32.6 million cells on dish",10218
same,Plaque no. in 10 mill. cells,[3]; [7],3134
same,1. number of plaques,[3]; [8],42
same,Spleen weight,"[3]; Exp 10 animal 3, average: 8.4 μl 20 mM s.c. (est. max extracellular 19.6 μM)",150 mg
same,Plaque no. in 10 mill. cells,[3]; [8],8.4
same,1. number of plaques,[3]; [9],0-2?
same,Spleen weight,"[3]; Exp 10 animal 4, high: 3.5 μl 200 mM s.c. (est. max extracellular 67.7 μM)",136 mg
same,Plaque no. in 10 mill. cells,[3]; [9],<=0.23
same,Mouse weight after 2 months,[3]; Exp 10 mouse 2 (11.3 μg 4-OH-OPB/30 g),37.6 gram
same,Mouse weight after 2 months,[3]; Exp 10 mouse 3 (51.5 μg 4-OH-OPB/30 g),33.3 gram
same,Mouse weight after 2 months,[3]; Exp 10 mouse 4 (210.2 μg 4-OH-OPB/30 g),34 gram
